Measurements published in US20210253598A1, “ARYL ANNULATED MACROCYCLIC INDOLE DERIVATIVES” (priority 2017, published 2021).
Where a name gives a salt, the structure may show the parent alone. Read-outs that look alike come from different tables or passages of the source.

Legend:
A2780 = assay: Anti-proliferative effect in A2780 cells, CellTiter-Glo (Assay 7); assay type: cell-based; conditions: Homo sapiens, A2780, 72 h, several values per example
Method: (§1) Assessment of the Anti-Proliferative Effect of Compounds in Different Cell Lines
(§2) The impact of compounds on the proliferation of different cell lines was assessed using the CellTiter-Glo® Luminescent Cell Viability reagent from Promega (G7573).
(§3) In parallel, cells were plated in a reference (day 0) plate for time zero determination. Cells were incubated in a humidified incubator at 37° C. overnight.
(§4) Rim wells were excluded. The cells were incubated for 72 hours in a humidified incubator at 37° C. The day 0 plate was measured by adding 30 μL/well of CTG solution (CellTiter-Glo® Luminescent Cell Viability reagent, Promega G7573) to time zero wells in the reference plate followed by a 10 minutes incubation and luminescence reading at 0.1 ms. using the PHERAstar FS microplate reader (BMG Labtech).
(§5) After 72 hours incubation, the treated plates were measured in the same way as the day 0 plate mentioned above. The Bella DRC Master Sheet was used to calculate IC50s, with CI=day 0 values and C0=DMSO control values.

SUDHL5 [1] = assay: Induction of caspase-3/7 activity in SUDHL5 cells (Assay 4); assay type: cell-based; conditions: Homo sapiens, SU-DHL-5, 3 h
In short: (§6)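 DLBCL lines SUDHL5 and SUDHL10 were treated with compound for 3 h at 37 °C. Caspase-3/7 activity was then read by Caspase-Glo 3/7 luminescence after 1 h at 37 °C. Medium-only background was subtracted and values were normalized to the mean of DMSO-treated cells.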

SUDHL10 [2] = assay: Induction of cytotoxicity in SUDHL10 cells, CellTiter-Glo (Assay 6); assay type: cell-based; conditions: SUDHL10, 5 hours incubation, median, read-out: Cytotox SUDHL10 [M] (median)
In short: (§7)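 Overnight seeding at 37 °C, 5 h treatment, CellTiter-Glo added, 15 min shake at RT, luminescence read. Medium without cells as control.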

MV-4-11 = assay: Anti-proliferative effect in MV-4-11 cells, CellTiter-Glo (Assay 7); assay type: cell-based; conditions: Homo sapiens, MV4-11, 72 h, several values per example
Method: as §1, §2, §3, §4, §5

SUDHL10 [3] = assay: Induction of caspase-3/7 activity in SUDHL10 cells (Assay 4); assay type: cell-based; conditions: Homo sapiens, SU-DHL10, 3 h
In short: as §6

MCL-1 = MCL-1 (Homo sapiens, UniProt Q07820, K194A/K197A/R201A); assay: Protein-protein interaction assay MCL-1/Noxa BH3 peptide, TR-FRET (MCL-1 assay, Assay 1); assay type: binding; conditions: MCL-1 Assay [M] (median), MBP-MCL-1 / Noxa BH3 peptide
Chain of MCL-1 (Q07820 173-321 K194A/K197A/R201A, looked up): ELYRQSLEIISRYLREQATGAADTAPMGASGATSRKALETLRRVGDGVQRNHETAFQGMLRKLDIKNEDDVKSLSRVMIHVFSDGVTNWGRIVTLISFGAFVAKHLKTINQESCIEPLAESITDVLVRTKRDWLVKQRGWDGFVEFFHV
In short: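 Human MBP-fused MCL-1 (aa 173-321; 1 nM final) was pre-incubated 10 min at 22 °C with compound in pH 7 Tris buffer containing NaCl, KF, Tween-20, DTT and BGG. Displacement of biotinylated Noxa BH3 peptide was read by TR-FRET (anti-MBP-Eu cryptate/streptavidin-XL665) after 1 h at 22 °C plus overnight at 4 °C. IC50 came from four-parameter fits against DMSO controls.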

SUDHL5 [4] = assay: Induction of cytotoxicity in SUDHL5 cells, CellTiter-Glo (Assay 6); assay type: cell-based; conditions: SUDHL5, 5 hours incubation, median, read-out: Cytotox SUDHL5 [M] (median)
In short: as §7

SUDHL5 [5] = assay: Anti-proliferative effect in SUDHL5 cells, CellTiter-Glo (Assay 7); assay type: cell-based; conditions: Homo sapiens, SU-DHL-5, 72 h
Method: as §1, §2, §3, §4, §5

AMO-1 = assay: Anti-proliferative effect in AMO-1 cells, CellTiter-Glo (Assay 7); assay type: cell-based; conditions: Homo sapiens, AMO1, 72 h, AMO-1, 72 hours incubation, CellTiter-Glo; several values per example; read-out: Antiproli AMO-1
Method: as §1, §2, §3, §4, §5

[6] = A2780, 72 hours incubation, CellTiter-Glo, read-out: Antiproli A2780
[7] = SUDHL5, 3 hours treatment, Caspase-Glo 3/7, median, read-out: Caspase SUDHL5 [M] (median)
[8] = MV-4-11, 72 hours incubation, CellTiter-Glo, read-out: Antiproli MV-4-11
[9] = SUDHL10, 3 hours treatment, Caspase-Glo 3/7, median, read-out: Caspase SUDHL10 [M] (median)
[10] = SUDHL5, 72 hours incubation, CellTiter-Glo, median, read-out: Antiproli SUDHL5 [M] (median)

Structure (SMILES)	IC50 (A2780; [6])	EC50 (SUDHL5 [1]; [7])	IC50 (SUDHL10 [2]; Homo sapiens, SU-DHL10, 5 h)	IC50 (MV-4-11; [8])	EC50 (SUDHL10 [3]; [9])	IC50 (MCL-1)	IC50 (SUDHL5 [4]; Homo sapiens, SU-DHL-5, 5 h)	IC50 (SUDHL5 [5]; [10])	IC50 (AMO-1)	IC50 (SUDHL10 [2])	IC50 (SUDHL5 [4])	IC50 (A2780; read-out: Antiproli A2780 [M], A2780, 72 hours incubation, CellTiter-Glo)	EC50 (SUDHL5 [1]; read-out: Caspase SUDHL5 [M] (median), SUDHL5, 3 hours treatment, Caspase-Glo 3/7)	IC50 (MV-4-11; read-out: Antiproli MV-4-11 [M], MV-4-11, 72 hours incubation, CellTiter-Glo)	EC50 (SUDHL10 [3]; read-out: Caspase SUDHL10 [M] (median), SUDHL10, 3 hours treatment, Caspase-Glo 3/7)	IC50 (SUDHL5 [5]; read-out: Antiproli SUDHL5 [M] (median), SUDHL5, 72 hours incubation, CellTiter-Glo)
Cc1c2c(nn1C)CN(C(=O)NC1CCOCC1)Cc1ccccc1Cn1c(C(=O)O)c(CCCOc3cccc4ccccc34)c3cccc-2c31 (racemic) [Example 24, (rac)-4,5-Dimethyl-17-[3-(naphthalen-1-yloxy)propyl]-8-(tetrahydro-2H-pyran-4-ylcarbamoyl)-7,8,9,14-tetrahydro-5H-indolo[1,7-bc]pyrazolo[4,3-e][2,8]benzodiazacycloundecine-16-carboxylic Acid]	> 3.3e-05 M	> 3.3e-05 M	> 3.3e-05 M	> 3.3e-05 M	> 3.3e-05 M	5.3e-08 M	> 3.3e-05 M	> 3.3e-05 M	–	–	–	–	–	–	–	–
Cc1c2c(nn1C)CN(C(=O)NCC1CCOCC1)Cc1ccccc1Cn1c(C(=O)O)c(CCCOc3cccc4ccccc34)c3cccc-2c31 (racemic) [Example 27, (rac)-4,5-Dimethyl-17-[3-(naphthalen-1-yloxy)propyl]-8-[(tetrahydro-2H-pyran-4-ylmethyl)-carbamoyl]-7,8,9,14-tetrahydro-5H-indolo[1,7-bc]pyrazolo[4,3-e][2,8]benzodiazacycloundecine-16-carboxylic Acid]	3.14e-05 M	> 3.3e-05 M	> 3.3e-05 M	2.48e-05 M	> 3.3e-05 M	3.1e-08 M	> 3.3e-05 M	2.7e-05 M	–	–	–	–	–	–	–	–
Cc1c2c(nn1C)CN(S(=O)(=O)CCN1CCOCC1)Cc1ccccc1Cn1c(C(=O)O)c(CCCOc3cccc4ccccc34)c3cccc-2c31 (racemic) [Example 30, (rac)-4,5-Dimethyl-8-{[2-(morpholin-4-yl)ethyl]sulfonyl}-17-[3-(naphthalen-1-yloxy)propyl]-7,8,9,14-tetrahydro-5H-indolo[1,7-bc]pyrazolo[4,3-e][2,8]benzodiazacycloundecine-16-carboxylic Acid]	1.71e-05 M	8.5e-06 M	2.9e-05 M	7.85e-06 M	> 3.3e-05 M	3.7e-08 M	8.6e-06 M	4.6e-06 M	–	–	–	–	–	–	–	–
Cc1c2c(nn1C)COCc1ccccc1Cn1c(C(=O)O)c(CCCOc3cccc4ccccc34)c3ccc(Cl)c-2c31 (racemic) [Example 36, (rac)-3-Chloro-4,5-dimethyl-17-[3-(naphthalen-1-yloxy)propyl]-5,7,9,14-tetrahydroindolo[7,1-fg]pyrazolo[3,4-d][2,8]benzoxazacycloundecine-16-carboxylic Acid]	2.31e-05 M	2.4e-06 M	4.9e-06 M	1.38e-06 M	5.5e-06 M	3.2e-09 M	3.8e-06 M	3.6e-06 M	–	–	–	–	–	–	–	–
Cc1c2c(nn1C)COCc1cccnc1Cn1c(C(=O)O)c(CCCOc3cccc4ccccc34)c3ccc(Cl)c-2c31 (racemic) [Example 39, (rac)-3-Chloro-4,5-dimethyl-17-[3-(naphthalen-1-yloxy)propyl]-5,7,9,14-tetrahydropyrazolo-[4′,3′:9,10]pyrido[3′,2′:3,4][1,6]oxazacycloundecino[8,7,6-hi]indole-16-carboxylic Acid]	> 3.3e-05 M	3.7e-06 M	6.7e-06 M	1.56e-05 M	5.7e-06 M	1.6e-09 M	3.3e-06 M	2.4e-06 M	–	–	–	–	–	–	–	–
Cc1c2c(nn1C)COCc1nccnc1Cn1c(C(=O)O)c(CCCOc3cccc4ccccc34)c3ccc(Cl)c-2c31 (racemic) [Example 45, (rac)-3-Chloro-4,5-dimethyl-17-{3-[(naphthalen-1-yl)oxy]propyl}-5,7,9,14-tetrahydropyrazino-[2′,3′:3,4]pyrazolo[4′,3′:9,10][1,6]oxazacycloundecino[8,7,6-hi]indole-16-carboxylic Acid]	–	2.2e-06 M	8.2e-06 M	1.19e-05 M	7.9e-06 M	–	2.7e-06 M	–	9.56 µM	–	–	–	–	–	–	–
Cc1nn(C)c2c1-c1c(F)ccc3c(CCCOc4ccc(F)c5ccccc45)c(C(=O)O)n(c13)Cc1ccccc1COC2 (racemic) [Example 82, (rac)-15-Fluoro-1-(3-((4-fluoronaphthalen-1-yl)oxy)propyl)-12,14-dimethyl-4,9,11,12-tetrahydrobenzo[3,4]pyrazolo[4′,3′:9,10][1]oxa[6]azacycloundecino[8,7,6-hi]indole-2-carboxylic Acid]	2.85e-05 M	2.2e-05 M	> 3.3e-05 M	1.45e-05 M	> 3.3e-05 M	1.2e-08 M	2.4e-05 M	1e-05 M	–	–	–	–	–	–	–	–
CCc1c2c(nn1C)COCc1ccccc1Cn1c(C(=O)O)c(CCCOC3CCCc4ccccc43)c3ccc(F)c-2c31 (racemic) [Example 92, (rac)-14-Ethyl-15-fluoro-13-methyl-1-(3-((1,2,3,4-tetrahydronaphthalen-1-yl)oxy)propyl)-4,9,11,13-tetrahydrobenzo[3,4]pyrazolo[4′,3′:9,10][1]oxa[6]azacycloundecino[8,7,6-hi]indole-2-carboxylic Acid]	> 3.3e-05 M	1.5e-05 M	> 3.3e-05 M	6.15e-06 M	> 3.3e-05 M	1.8e-08 M	8.1e-06 M	> 3.3e-05 M	–	–	–	–	–	–	–	–
Cc1c2c(nn1C)CN(C)Cc1ccccc1Cn1c(C(=O)O)c(CCCOc3cccc4ccccc34)c3cccc-2c31 (single isomer, unassigned; enantiomer 2) [Example 16, 4,5,8-Trimethyl-17-[3-(naphthalen-1-yloxy)propyl]-7,8,9,14-tetrahydro-5H-indolo[1,7-bc]pyrazolo[4,3-e][2,8]benzodiazacycloundecine-16-carboxylic Acid (Enantiomer 2)]	–	2.4e-05 M	–	1.15e-05 M	> 3.3e-05 M	1.1e-07 M	–	–	20.3 µM	3e-05 M	2.4e-05 M	–	–	–	–	–
Cc1c2c(nn1C)COCc1ncccc1Cn1c(C(=O)O)c(CCCOc3cccc4ccccc34)c3ccc(Cl)c-2c31 (single isomer, unassigned; enantiomer 2) [Example 44, 3-Chloro-4,5-dimethyl-17-[3-(naphthalen-1-yloxy)propyl]-5,7,9,14-tetrahydropyrazolo-[4′,3′:9,10]pyrido[2′,3′:3,4][1,6]oxazacycloundecino[8,7,6-hi]indole-16-carboxylic acid-N-ethylethanamine Salt (Enantiomer 2)]	–	–	1.5e-05 M	–	–	5.2e-09 M	7.9e-06 M	–	–	–	–	2.37e-05 M	7.8e-06 M	1.54e-05 M	1.5e-05 M	5.7e-06 M
